Laboratory results taken from patent publication US6048875A, “Benzothiophene, benzofuran and indole compounds” (Adir et Compagnie, priority 1998, dated 2000).
pIC50: −log10 of the molar value.

Biological target: recombinant active human PAI-1 (Homo sapiens, UniProt P05121)
Assay: Inhibition of the activity of PAI-1 (fibrin clot formation and breakdown monitored by turbidity in microplate wells; fibrinolytic activity)
Format: biochemical
Conditions: in vitro, pH 7.4 phosphate buffer, clot absorbance two hours after fibrin formation, 2 nM PAI-1 solution, tissue plasminogen activator, fibrinogen, human thrombin, read-out: fibrinolytic activity IC50 (concentration of product that inhibits PAI-1 activity by 50%)

recombinant active human PAI-1, sequence (P05121 24-402): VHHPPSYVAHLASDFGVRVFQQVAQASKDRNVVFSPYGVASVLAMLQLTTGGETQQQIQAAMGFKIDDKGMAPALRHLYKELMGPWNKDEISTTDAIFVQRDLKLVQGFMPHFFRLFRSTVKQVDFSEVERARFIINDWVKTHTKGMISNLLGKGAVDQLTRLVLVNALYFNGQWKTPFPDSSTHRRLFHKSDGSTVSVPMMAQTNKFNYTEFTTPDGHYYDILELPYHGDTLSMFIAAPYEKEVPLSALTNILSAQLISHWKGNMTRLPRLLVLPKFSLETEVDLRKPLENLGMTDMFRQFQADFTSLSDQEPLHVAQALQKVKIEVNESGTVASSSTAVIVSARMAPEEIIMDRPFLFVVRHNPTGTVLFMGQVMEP

SMILES	pIC50
O=C(O)/C(=C/c1sc2cc(OCc3ccccc3)c(OCc3ccccc3)cc2c1Oc1ccc(-c2ccncc2)cc1)c1ccncc1 [Example 66]	5.66
COc1cc2sc(/C=C(/C(=O)O)c3ccncc3)c(Oc3cccnc3)c2cc1OCc1ccccc1 [Example 67]	5.30
COc1ccc(Oc2c(/C=C(/C(=O)O)c3ccncc3)sc3cc(OCc4ccccc4)c(OCc4ccccc4)cc23)cc1	4.89
O=C(O)/C(=C/c1sc2cc(OCc3ccccc3)c(OCc3ccccc3)cc2c1Oc1ccc(OCc2ccccc2)cc1)c1ccncc1	5.15
